Measured values taken from patent EP0726261A1, “Herbidical 1,2,4 thiadiazoles” (American Cyanamid Company, priority 1995, dated 1996).

What was measured:
Format in all cases: in vivo
Alopecurus myosuroides [1] = experiment: Preemergence herbicidal activity (Example 67); parameters: herbicide rating, ALOMY: scale not given here; conditions: pre, 800 g/ha; for herbicide rating, ALOMY: rated about 1-3 weeks after treatment
Procedure, shortened: (§1)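 Visual injury ratings are taken about 1-3 weeks after the soil surface of treated cups is sprayed. The spray delivers 800g/ha in a volume equivalent to 400 L/ha from an acetone/surfactant solution diluted with water.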

Setaria viridis [2] = experiment: Preemergence herbicidal activity (Example 67); parameters: herbicide rating, SETVI: scale not given here; conditions: pre, 800 g/ha; for herbicide rating, SETVI: rated about 1-3 weeks after treatment
Procedure, shortened: as §1

Helianthus annuus [3] = experiment: Preemergence herbicidal activity (Example 67); conditions: pre, 800 g/ha; for herbicide rating, HELAN: rated about 1-3 weeks after treatment
Procedure, shortened: as §1

Amaranthus retroflexus [4] = experiment: Preemergence herbicidal activity (Example 67); conditions: pre, 800 g/ha; for herbicide rating, AMARE: rated about 1-3 weeks after treatment
Procedure, shortened: as §1

Chenopodium album [5] = experiment: Preemergence herbicidal activity (Example 67); conditions: pre, 800 g/ha; for herbicide rating, CHEAL: rated about 1-3 weeks after treatment
Procedure, shortened: as §1

Veronica persica [6] = experiment: Preemergence herbicidal activity (Example 67); conditions: pre, 800 g/ha; for herbicide rating, VERPE: rated about 1-3 weeks after treatment
Procedure, shortened: as §1

Ipomoea hederacea [7] = experiment: Preemergence herbicidal activity (Example 67); conditions: pre, 800 g/ha; for herbicide rating, IPOHE: rated about 1-3 weeks after treatment
Procedure, shortened: as §1

Zea mays [8] = experiment: Preemergence herbicidal activity (Example 67); conditions: pre, 800 g/ha; for herbicide rating, ZEAMX: rated about 1-3 weeks after treatment
Procedure, shortened: as §1

Abutilon theophrasti [9] = experiment: Preemergence herbicidal activity (Example 67); conditions: pre, 800 g/ha; for herbicide rating, ABUTH: rated about 1-3 weeks after treatment
Procedure, shortened: as §1

Galium aparine [10] = experiment: Preemergence herbicidal activity (Example 67); conditions: pre, 800 g/ha; for herbicide rating, GALAP: rated about 1-3 weeks after treatment
Procedure, shortened: as §1

Hordeum vulgare [11] = experiment: Preemergence herbicidal activity (Example 67); parameters: herbicide rating, HORVW: scale not given here; conditions: pre, 800 g/ha; for herbicide rating, HORVW: rated about 1-3 weeks after treatment
Procedure, shortened: as §1

Helianthus annuus [12] = experiment: Postemergence herbicidal activity (Example 67); conditions: pos, 800 g/ha; for herbicide rating, HELAN: rated after 10-21 days
Procedure, shortened: (§2)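 Damage scores are visual ratings taken 10-21 days after a single spray of 800g/ha applied to 3-6 week old seedlings. Compound was formulated in acetone containing 0.5% TRITON X-155 and diluted with water.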

Amaranthus retroflexus [13] = experiment: Postemergence herbicidal activity (Example 67); conditions: pos, 800 g/ha; for herbicide rating, AMARE: rated after 10-21 days
Procedure, shortened: as §2

Chenopodium album [14] = experiment: Postemergence herbicidal activity (Example 67); conditions: pos, 800 g/ha; for herbicide rating, CHEAL: rated after 10-21 days
Procedure, shortened: as §2

Veronica persica [15] = experiment: Postemergence herbicidal activity (Example 67); conditions: pos, 800 g/ha; for herbicide rating, VERPE: rated after 10-21 days
Procedure, shortened: as §2

Ipomoea hederacea [16] = experiment: Postemergence herbicidal activity (Example 67); conditions: pos, 800 g/ha; for herbicide rating, IPOHE: rated after 10-21 days
Procedure, shortened: as §2

Zea mays [17] = experiment: Postemergence herbicidal activity (Example 67); conditions: pos, 800 g/ha; for herbicide rating, ZEAMX: rated after 10-21 days
Procedure, shortened: as §2

Hordeum vulgare [18] = experiment: Postemergence herbicidal activity (Example 67); conditions: pos, 800 g/ha; for herbicide rating, HORVW: rated after 10-21 days
Procedure, shortened: as §2

Alopecurus myosuroides [19] = experiment: Postemergence herbicidal activity (Example 67); conditions: pos, 800 g/ha; for herbicide rating, ALOMY: rated after 10-21 days
Procedure, shortened: as §2

Setaria viridis [20] = experiment: Postemergence herbicidal activity (Example 67); conditions: pos, 800 g/ha; for herbicide rating, SETVI: rated after 10-21 days
Procedure, shortened: as §2

Triticum aestivum [21] = experiment: Postemergence herbicidal activity (Example 67); conditions: pos, 800 g/ha; for herbicide rating, TRZAW: rated after 10-21 days
Procedure, shortened: as §2

Abutilon theophrasti [22] = experiment: Postemergence herbicidal activity (Example 67); conditions: pos, 800 g/ha; for herbicide rating, ABUTH: rated after 10-21 days
Procedure, shortened: as §2

Galium aparine [23] = experiment: Postemergence herbicidal activity (Example 67); conditions: pos, 800 g/ha; for herbicide rating, GALAP: rated after 10-21 days
Procedure, shortened: as §2

Triticum aestivum [24] = experiment: Preemergence herbicidal activity (Example 67); parameters: herbicide rating, TRZAW: scale not given here; conditions: pre, 800 g/ha; for herbicide rating, TRZAW: rated about 1-3 weeks after treatment
Procedure, shortened: as §1

SMILES: C[C@H](NC(=O)c1nc(-c2cccc(F)c2)ns1)c1ccccc1 [Example 45, (S)-3-(3-Fluorophenyl)-[1,2,4]thiadiazole-5-carboxylic acid, 1-(phenylethyl)amide]
- ALO MY rating (Alopecurus myosuroides [1]): 3 (16-29%)
- SET VI rating (Setaria viridis [2]): 0
- HEL AN rating (Helianthus annuus [3]): 0
- AMA RE rating (Amaranthus retroflexus [4]): 0
- CHE AL rating (Chenopodium album [5]): 0
- VER PE rating (Veronica persica [6]): 8 (91-99%)
- IPO HE rating (Ipomoea hederacea [7]): 0
- ZEA MX rating (Zea mays [8]): 0
- ABU TH rating (Abutilon theophrasti [9]): 0
- GAL AP rating (Galium aparine [10]): 0
- HOR VW rating (Hordeum vulgare [11]): 0
- HEL AN rating (Helianthus annuus [12]): 8 (91-99%)
- AMA RE rating (Amaranthus retroflexus [13]): 3 (16-29%)
- CHE AL rating (Chenopodium album [14]): 4 (30-44%)
- VER PE rating (Veronica persica [15]): 7 (80-90%)
- IPO HE rating (Ipomoea hederacea [16]): 8 (91-99%)
- ZEA MX rating (Zea mays [17]): 4 (30-44%)
- HOR VW rating (Hordeum vulgare [18]): 4 (30-44%)
- ALO MY rating (Alopecurus myosuroides [19]): 4 (30-44%)
- SET VI rating (Setaria viridis [20]): 6 (65-79%)
- TRZ AW rating (Triticum aestivum [21]): 3 (16-29%)
- ABU TH rating (Abutilon theophrasti [22]): 8 (91-99%)
- GAL AP rating (Galium aparine [23]): 6 (65-79%)
- TRZ AW rating (Triticum aestivum [24]): 0

SMILES: CC(NC(=O)c1nsc(-c2cccc(C(F)(F)F)c2)n1)c1cccs1 (racemic) [Example 3, (R/S)-5-(3-Trifluoromethylphenyl)-[1,2,4]thiadiazole-3-carboxylic acid, [1-(2-thienyl)ethyl]amide]
- herbicide rating, ALOMY (Alopecurus myosuroides [1]): 0
- herbicide rating, SETVI (Setaria viridis [2]): 0
- herbicide rating, HELAN (Helianthus annuus [3]): 0
- herbicide rating, AMARE (Amaranthus retroflexus [4]): 0
- herbicide rating, CHEAL (Chenopodium album [5]): 3 (16-29%)
- herbicide rating, VERPE (Veronica persica [6]): 0
- herbicide rating, IPOHE (Ipomoea hederacea [7]): 0
- herbicide rating, ZEAMX (Zea mays [8]): 0
- herbicide rating, ABUTH (Abutilon theophrasti [9]): 0
- herbicide rating, GALAP (Galium aparine [10]): 0
- herbicide rating, HORVW (Hordeum vulgare [11]): 0
- herbicide rating, HELAN (Helianthus annuus [12]): 4 (30-44%)
- herbicide rating, AMARE (Amaranthus retroflexus [13]): 2 (6-15%)
- herbicide rating, CHEAL (Chenopodium album [14]): 4 (30-44%)
- herbicide rating, VERPE (Veronica persica [15]): 0
- herbicide rating, IPOHE (Ipomoea hederacea [16]): 3 (16-29%)
- herbicide rating, ZEAMX (Zea mays [17]): 1 (1-5%)
- herbicide rating, HORVW (Hordeum vulgare [18]): 2 (6-15%)
- herbicide rating, ALOMY (Alopecurus myosuroides [19]): 3 (16-29%)
- herbicide rating, SETVI (Setaria viridis [20]): 8 (91-99%)
- herbicide rating, TRZAW (Triticum aestivum [21]): 2 (6-15%)
- herbicide rating, ABUTH (Abutilon theophrasti [22]): 1 (1-5%)
- herbicide rating, GALAP (Galium aparine [23]): 2 (6-15%)
- herbicide rating, TRZAW (Triticum aestivum [24]): 0

SMILES: CC(NC(=O)c1nc(-c2ccccc2F)ns1)c1cccs1 (racemic) [Example 38]
- herbicide rating, ALOMY (Alopecurus myosuroides [1]): 0
- herbicide rating, SETVI (Setaria viridis [2]): 0
- herbicide rating, HELAN (Helianthus annuus [3]): 0
- herbicide rating, AMARE (Amaranthus retroflexus [4]): 4 (30-44%)
- herbicide rating, CHEAL (Chenopodium album [5]): 5 (45-64%)
- herbicide rating, VERPE (Veronica persica [6]): 2 (6-15%)
- herbicide rating, IPOHE (Ipomoea hederacea [7]): 0
- herbicide rating, ZEAMX (Zea mays [8]): 0
- herbicide rating, ABUTH (Abutilon theophrasti [9]): 0
- herbicide rating, GALAP (Galium aparine [10]): 0
- herbicide rating, HORVW (Hordeum vulgare [11]): 0
- herbicide rating, HELAN (Helianthus annuus [12]): 7 (80-90%)
- herbicide rating, AMARE (Amaranthus retroflexus [13]): 3 (16-29%)
- herbicide rating, CHEAL (Chenopodium album [14]): 6 (65-79%)
- herbicide rating, VERPE (Veronica persica [15]): 1 (1-5%)
- herbicide rating, IPOHE (Ipomoea hederacea [16]): 5 (45-64%)
- herbicide rating, ZEAMX (Zea mays [17]): 3 (16-29%)
- herbicide rating, HORVW (Hordeum vulgare [18]): 3 (16-29%)
- herbicide rating, ALOMY (Alopecurus myosuroides [19]): 4 (30-44%)
- herbicide rating, SETVI (Setaria viridis [20]): 8 (91-99%)
- herbicide rating, TRZAW (Triticum aestivum [21]): 3 (16-29%)
- herbicide rating, ABUTH (Abutilon theophrasti [22]): 8 (91-99%)
- herbicide rating, GALAP (Galium aparine [23]): 5 (45-64%)
- herbicide rating, TRZAW (Triticum aestivum [24]): 0
